According to patent publication US20250144223A1, “PROTEIN DEGRADATION COMPOUND BASED ON NAMPT TARGET PROTEIN AND APPLICATION THEREOF” (GLUETACS THERAPEUTICS (SHANGHAI) CO., LTD., priority 2021, published 2025):

System: Jurkat
Assay: CellTiter-Glo Luminescent Cell Viability Assay, half inhibitory concentration (IC50) on tumor cell proliferation
Assay type: cell-based
Conditions: Homo sapiens, Jurkat cells, 72 h treatment
Description: The tumor cells used herein were cultured in a cell culture medium at 37° C. in an incubator with 5% CO2, where the cell culture medium was supplemented with 10% FBS, as well as penicillin at a final concentration of 100 U/mL and streptomycin at a final concentration of 100 μg/mL. Prior to experimentation, all cells used were identified as correct cells by STR cells, and were negative for mycoplasma through routine testing.
IC50 values of the compounds of the present disclosure (including the compounds in Table 1 and compounds of examples) were measured using the CellTiter-Glo® Luminescent Cell Viability Assay kit from Promega Corporation. Assay details are as follows: Cells were seeded in 100 μL RPMI1640 medium containing serum at a density of 20,000 cells/well. After 24 h, the inoculated cells were treated with the compounds of the present disclosure which were serially diluted. After the cells were treated with the compounds of the present disclosure for 72 h, the CellTiter-Glo® reagent was added to the culture medium for cell viability assessment according to the instructions provided with the kit. DMSO served as the negative control, and FK866 inhibitor was used as the positive control, both treated with the same protocol as the compounds of the present disclosure. The growth inhibition of the compounds of the present disclosure on cells was plotted by Prism Graphpad software, and the IC50 values of the compounds of the present disclosure were calculated therefrom.

Row | Compound | IC50
1 | O=C(/C=C/c1cccnc1)NCCCCC1CCN(C(=O)c2ccc(N3CCNCC3)cc2)CC1 [SIAIS630006, (E)-N-(4-(1-(4-(piperazin-1-yl)benzoyl)piperidin-4-yl)butyl)-3-(pyridin-3-yl)acrylamide] | 3 nM
2 | Cc1ncsc1-c1ccc(CNC(=O)[C@@H]2C[C@@H](O)CN2C(=O)[C@@H](NC(=O)CCCCC(=O)N2CCN(c3ccc(C(=O)N4CCC(CCCCNC(=O)/C=C/c5cccnc5)CC4)cc3)CC2)C(C)(C)C)cc1 [SIAIS630007, (2S,4R)-1-((S)-3,3-dimethyl-2-(6-oxo-6-(4-(4-(4-(4-((E)-3-(pyridin-3-yl)acrylamido)butyl)piperidine-1-carbonyl)phenyl)piperazin-1-yl)hexanamido)butanoyl)-4-hydroxy-N-(4-(4-methylthiazol-5-yl)benzyl)pyrrolidine-2-carboxamide] | 109 nM
3 | Cc1ncsc1-c1ccc(CNC(=O)[C@@H]2C[C@@H](O)CN2C(=O)[C@@H](NC(=O)CCCCCCCCCCCCCCC(=O)N2CCN(c3ccc(C(=O)N4CCC(CCCCNC(=O)/C=C/c5cccnc5)CC4)cc3)CC2)C(C)(C)C)cc1 [SIAIS630008, (2S,4R)-1-((S)-3,3-dimethyl-2-(16-oxo-16-(4-(4-(4-(4-((E)-3-(pyridin-3-yl)acrylamido)butyl)piperidine-1-carbonyl)phenyl)piperazin-1-yl)hexadecanamido)butanoyl)-4-hydroxy-N-(4-(4-methylthiazol-5-yl)benzyl)pyrrolidine-2-carboxamide] | 96.2 nM
4 | O=C(/C=C/c1cccnc1)NCCCCC1CCN(C(=O)c2ccc(N3CCN(C(=O)CCNc4cccc5c4C(=O)N(C4CCC(=O)NC4=O)C5=O)CC3)cc2)CC1 (stereo not drawn) [SIAIS630009, (E)-N-(4-(1-(4-(4-(3-((2-(2,6-dioxopiperidin-3-yl)-1,3-dioxoisoindolin-4-yl)amino)propanoyl)piperazin-1-yl)benzoyl)piperidin-4-yl)butyl)-3-(pyridin-3-yl)acrylamide] | 2.29 nM
5 | O=C(/C=C/c1cccnc1)NCCCCC1CCN(C(=O)c2ccc(N3CCN(C(=O)CCCNc4cccc5c4C(=O)N(C4CCC(=O)NC4=O)C5=O)CC3)cc2)CC1 (stereo not drawn) [SIAIS630010, (E)-N-(4-(1-(4-(4-(4-((2-(2,6-dioxopiperidin-3-yl)-1,3-dioxoisoindolin-4-yl)amino)butanoyl)piperazin-1-yl)benzoyl)piperidin-4-yl)butyl)-3-(pyridin-3-yl)acrylamide] | 0.351 nM
6 | O=C(/C=C/c1cccnc1)NCCCCC1CCN(C(=O)c2ccc(N3CCN(C(=O)CCCCNc4cccc5c4C(=O)N(C4CCC(=O)NC4=O)C5=O)CC3)cc2)CC1 (stereo not drawn) [SIAIS630011, (E)-N-(4-(1-(4-(4-(5-((2-(2,6-dioxopiperidin-3-yl)-1,3-dioxoisoindolin-4-yl)amino)pentanoyl)piperazin-1-yl)benzoyl)piperidin-4-yl)butyl)-3-(pyridin-3-yl)acrylamide] | 2.85 nM
7 | O=C(/C=C/c1cccnc1)NCCCCC1CCN(C(=O)c2ccc(N3CCN(C(=O)CCCCCCNc4cccc5c4C(=O)N(C4CCC(=O)NC4=O)C5=O)CC3)cc2)CC1 (stereo not drawn) [SIAIS630012, (E)-N-(4-(1-(4-(4-(7-((2-(2,6-dioxopiperidin-3-yl)-1,3-dioxoisoindolin-4-yl)amino)heptanoyl)piperazin-1-yl)benzoyl)piperidin-4-yl)butyl)-3-(pyridin-3-yl)acrylamide] | 2.82 nM
8 | O=C(/C=C/c1cccnc1)NCCCCC1CCN(C(=O)c2ccc(N3CCN(C(=O)CSc4cccc5c4CN(C4CCC(=O)NC4=O)C5=O)CC3)cc2)CC1 (stereo not drawn) [SIAIS630013, (E)-N-(4-(1-(4-(4-(2-((2-(2,6-dioxopiperidin-3-yl)-1-oxoisoindolin-4-yl)thio)acetyl)piperazin-1-yl)benzoyl)piperidin-4-yl)butyl)-3-(pyridin-3-yl)acrylamide] | 190 nM
9 | O=C(/C=C/c1cccnc1)NCCCCC1CCN(C(=O)c2ccc(N3CCN(C(=O)CCCCSc4cccc5c4CN(C4CCC(=O)NC4=O)C5=O)CC3)cc2)CC1 (stereo not drawn) [SIAIS630014, (E)-N-(4-(1-(4-(4-(5-((2-(2,6-dioxopiperidin-3-yl)-1-oxoisoindolin-4-yl)thio)pentanoyl)piperazin-1-yl)benzoyl)piperidin-4-yl)butyl)-3-(pyridin-3-yl)acrylamide] | 1.99 nM
10 | O=C(/C=C/c1cccnc1)NCCCCN1CCN(C(=O)c2ccc(N3CCNCC3)cc2)CC1 [SIAIS630020, (E)-N-(4-(4-(4-(piperazin-1-yl)benzoyl)piperazin-1-yl)butyl)-3-(pyridin-3-yl)acrylamide] | 849 nM
11 | O=C(/C=C/c1cccnc1)NCCCCC1CCN(C(=O)c2ccc(N3CCN(C(=O)CCCCCSc4cccc5c4CN(C4CCC(=O)NC4=O)C5=O)CC3)cc2)CC1 (stereo not drawn) [SIAIS630037, (E)-N-(4-(1-(4-(4-(6-((2-(2,6-dioxopiperidin-3-yl)-1-oxoisoindolin-4-yl)thio)hexanoyl)piperazin-1-yl)benzoyl)piperidin-4-yl)butyl)-3-(pyridin-3-yl)acrylamide] | 1.14 nM
12 | O=C(/C=C/c1cccnc1)NCCCCC1CCN(C(=O)c2ccc(N3CCN(C(=O)COCCSc4cccc5c4CN(C4CCC(=O)NC4=O)C5=O)CC3)cc2)CC1 (stereo not drawn) [SIAIS630038, (E)-N-(4-(1-(4-(4-(2-(2-((2-(2,6-dioxopiperidin-3-yl)-1-oxoisoindolin-4-yl)thio)ethoxy)acetyl)piperazin-1-yl)benzoyl)piperidin-4-yl)butyl)-3-(pyridin-3-yl)acrylamide] | 24.7 nM
13 | O=C(/C=C/c1cccnc1)NCCCCC1CCN(C(=O)c2ccc(N3CCN(C(=O)COCCOCCSc4cccc5c4CN(C4CCC(=O)NC4=O)C5=O)CC3)cc2)CC1 (stereo not drawn) [SIAIS630039, (E)-N-(4-(1-(4-(4-(2-(2-(2-((2-(2,6-dioxopiperidin-3-yl)-1-oxoisoindolin-4-yl)thio)ethoxy)ethoxy)acetyl)piperazin-1-yl)benzoyl)piperidin-4-yl)butyl)-3-(pyridin-3-yl)acrylamide] | 7.96 nM
14 | O=C(/C=C/c1cccnc1)NCCCCC1CCN(C(=O)c2ccc(N3CCN(CCCCC#Cc4cccc5c4CN(C4CCC(=O)NC4=O)C5=O)CC3)cc2)CC1 (stereo not drawn) [SIAIS630119, (E)-N-(4-(1-(4-(4-(6-(2-(2,6-dioxopiperidin-3-yl)-1-oxoisoindolin-4-yl)hex-5-yn-1-yl)piperazin-1-yl)benzoyl)piperidin-4-yl)butyl)-3-(pyridin-3-yl)acrylamide] | 2.99 nM
15 | O=C(/C=C/c1cccnc1)NCCCCC1CCN(C(=O)c2ccc(N3CCN(CCCCCCCC#Cc4cccc5c4CN(C4CCC(=O)NC4=O)C5=O)CC3)cc2)CC1 (stereo not drawn) [SIAIS630122, (E)-N-(4-(1-(4-(4-(9-(2-(2,6-dioxopiperidin-3-yl)-1-oxoisoindolin-4-yl)non-8-yn-1-yl)piperazin-1-yl)benzoyl)piperidin-4-yl)butyl)-3-(pyridin-3-yl)acrylamide] | 28.3 nM
16 | O=C(/C=C/c1cccnc1)NCCCCC1CCN(C(=O)c2ccc(N3CCN(CCCCSc4cccc5c4CN(C4CCC(=O)NC4=O)C5=O)CC3)cc2)CC1 (stereo not drawn) [SIAIS630123, (E)-N-(4-(1-(4-(4-(4-((2-(2,6-dioxopiperidin-3-yl)-1-oxoisoindolin-4-yl)thio)butyl)piperazin-1-yl)benzoyl)piperidin-4-yl)butyl)-3-(pyridin-3-yl)acrylamide] | 2.52 nM
17 | O=C(/C=C/c1cccnc1)NCCCCC1CCN(C(=O)c2ccc(N3CCN(CCCC#Cc4cccc5c4CN(C4CCC(=O)NC4=O)C5=O)CC3)cc2)CC1 (stereo not drawn) [SIAIS630129, (E)-N-(4-(1-(4-(4-(5-(2-(2,6-dioxopiperidin-3-yl)-1-oxoisoindolin-4-yl)pent-4-yn-1-yl)piperazin-1-yl)benzoyl)piperidin-4-yl)butyl)-3-(pyridin-3-yl)acrylamide] | 2.93 nM
18 | O=C(/C=C/c1cccnc1)NCCCCC1CCN(C(=O)c2ccc(N3CCN(CCSc4cccc5c4CN(C4CCC(=O)NC4=O)C5=O)CC3)cc2)CC1 (stereo not drawn) [SIAIS630130, (E)-N-(4-(1-(4-(4-(2-((2-(2,6-dioxopiperidin-3-yl)-1-oxoisoindolin-4-yl)thio)ethyl)piperazin-1-yl)benzoyl)piperidin-4-yl)butyl)-3-(pyridin-3-yl)acrylamide] | 24.2 nM
19 | O=C(/C=C/c1cccnc1)NCCCCC1CCN(C(=O)c2ccc(N3CCN(CCCSc4cccc5c4CN(C4CCC(=O)NC4=O)C5=O)CC3)cc2)CC1 (stereo not drawn) [SIAIS630131, (E)-N-(4-(1-(4-(4-(3-((2-(2,6-dioxopiperidin-3-yl)-1-oxoisoindolin-4-yl)thio)propyl)piperazin-1-yl)benzoyl)piperidin-4-yl)butyl)-3-(pyridin-3-yl)acrylamide] | 4.38 nM
20 | O=C(/C=C/c1cccnc1)NCCCCC1CCN(C(=O)c2ccc(N3CCN(CCCCCSc4cccc5c4CN(C4CCC(=O)NC4=O)C5=O)CC3)cc2)CC1 (stereo not drawn) [SIAIS630132, (E)-N-(4-(1-(4-(4-(5-((2-(2,6-dioxopiperidin-3-yl)-1-oxoisoindolin-4-yl)thio)pentyl)piperazin-1-yl)benzoyl)piperidin-4-yl)butyl)-3-(pyridin-3-yl)acrylamide] | 6.29 nM
21 | O=C(/C=C/c1cccnc1)NCCCCC1CCN(C(=O)c2ccc(N3CCN(CCCCCCSc4cccc5c4CN(C4CCC(=O)NC4=O)C5=O)CC3)cc2)CC1 (stereo not drawn) [SIAIS630133, (E)-N-(4-(1-(4-(4-(6-((2-(2,6-dioxopiperidin-3-yl)-1-oxoisoindolin-4-yl)thio)hexyl)piperazin-1-yl)benzoyl)piperidin-4-yl)butyl)-3-(pyridin-3-yl)acrylamide] | 6.37 nM
